Among the data in PubChem BioAssay (NCI) are TGI values, retold here.

Holding throughout (assay): NCI anticancer screen, dose series, 48 h
The test system of assay [1] is CAKI-1 renal.
The subject of assay [2] is MOLT-4 leukemia.
The subject of assay [3] is SF-295 CNS.
Assay [4] deals with SR leukemia.
In assay [5] the test system is NCI-H522 lung.
For assay [6], the system named is HL-60(TB) leukemia.
The subject of assay [7] is U251 CNS.
The subject of assay [8] is IGROV1 ovarian.
For assay [9], the system named is OVCAR-3 ovarian.
The test system of assay [10] is 786-0 renal.
Assay [11] relates to NCI-H23 lung.
For assay [12], the system named is OVCAR-8 ovarian.
Assay [13] deals with UACC-257 melanoma.
Assay [14] deals with SN12C renal.
Assay [15] has as its system MDA-MB-231 breast.
Assay [16] concerns RPMI-8226 leukemia.
The test system of assay [17] is A549 NSCLC.

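Five concentrations, 48 hours, 96-well plates. TGI is the concentration that stops growth completely.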 Some results are limits rather than exact numbers.

For `COC(=O)c1c(CC(Cc2ccc3c(c2)CCCC3)C(=O)O)ccc2c1CCCC2` (stereo unspecified), the TGI in [1] was greater than 100 µM; in assay [2], greater than 100 µM; in [3] it was greater than 100 µM; in assay [4] it was 91.6 µM; in assay [5] it was 34.1 µM; in assay [6] it was 46.5 µM. Moreover, the TGI in assay [7] was greater than 100 µM; in assay [8], greater than 100 µM; in assay [9], 34.3 µM; in [10], greater than 100 µM; in [11] it was greater than 100 µM; in assay [12], greater than 100 µM. Moreover, the TGI in assay [13] was 33.3 µM; in [14], greater than 100 µM; in assay [15] it was greater than 100 µM; in assay [16] it was 73.3 µM; in assay [17], greater than 100 µM.

As to `COc1cc(C(=O)Oc2c(C(C)=O)sc3c2c(=O)n(-c2ccccc2)c(=S)n3-c2ccccc2)cc(OC)c1OC`, the TGI was 76.5 µM in [1]; 50.5 µM in assay [2]; 40.6 µM in assay [3]; greater than 100 µM in assay [4]; 4.53 µM in assay [5]; 49.7 µM in assay [6]. In addition, the TGI in assay [7] came out at 77.8 µM; in [8] it was 43.5 µM; in assay [9] it was 62.2 µM; in assay [10], 55.2 µM; in assay [11], 39.9 µM; in assay [12], 53.7 µM. Also, the TGI in [13] turned out to be 68.3 µM; in assay [14], 27.4 µM; in assay [15], 88.8 µM; in assay [16], 59.9 µM; in assay [17] it was 78.3 µM.

In the case of `Nc1nc2ccc(Sc3ccc4nc(N)[nH]c(=O)c4c3)cc2c(=O)[nH]1`, the TGI in [1], in assay [2], in assay [3], in [4], in [5] and in assay [6] was greater than 100 µM each time. Moreover, the TGI in [7], in assay [8], in assay [9], in [10], in assay [11] and in assay [12] was greater than 100 µM each time. For the same compound, the TGI in assay [13], in [14], in assay [15], in assay [16] and in [17] was greater than 100 µM in each case.

With `Cc1nc2ccc(S(=O)(=O)NS(=O)(=O)c3ccc(-c4ccccc4)cc3)cc2c(=O)n1NS(=O)(=O)c1ccc(-c2ccccc2)cc1`, the TGI in assay [1], in [2], in [3], in assay [4], in [5] and in [6] was greater than 100 µM throughout. Besides, the TGI in assay [7], in assay [8], in assay [9], in assay [10], in assay [11] and in assay [12] was greater than 100 µM in each case. Moreover, the TGI in assay [13], in assay [14], in assay [15], in assay [16] and in assay [17] was greater than 100 µM in each case.

Consider `Cc1ccc(-c2c(-c3ccccc3)[nH]c(C)c2C(=O)ONC(=O)c2ccccc2)cc1`, for which the TGI amounted to 5.48 µM in [1]; 7.73 µM in assay [2]; 4.17 µM in assay [3]; 5.36 µM in [4]; 6.48 µM in [5]; 2.02 µM in [6]. Further, the TGI in assay [7] was found to be 4.07 µM; in assay [8], 3.15 µM; in [9], 17.4 µM; in assay [10], 12.6 µM; in assay [11] it was 17.4 µM; in assay [12], 18.5 µM. Also, the TGI in assay [13] worked out at 27.3 µM; in assay [14], 8.36 µM; in assay [15], 12.8 µM; in assay [16], 29.5 µM; in assay [17], 7.65 µM.

For `COC(=O)C1Cc2c(OC)ccc(OC)c2C(O)C1C(=O)OC` (stereo unspecified), the TGI in [1], in [2], in [3], in [4], in assay [5] and in assay [6] was greater than 100 µM throughout. In addition, the TGI in assay [7], in [8], in assay [9], in assay [10], in assay [11] and in assay [12] was greater than 100 µM in each case. The TGI in assay [13], in assay [14], in [15], in [16] and in [17] was greater than 100 µM throughout.

Take `C[C@H]1C2Cc3cc(O)ccc3[C@@]1(C)CCN2CCc1ccc(N)cc1`: the TGI in assay [1] was greater than 100 µM; in [2], greater than 100 µM; in assay [3], 53.7 µM; in assay [4], 72.8 µM; in [5] it was 36.2 µM; in assay [6], greater than 100 µM. Also, the TGI in assay [7] was 33.9 µM; in [8], 66.3 µM; in assay [9], 47 µM; in [10], 30.7 µM; in assay [11], greater than 100 µM; in [12], 45.8 µM. Further, the TGI in assay [13] was 36.5 µM; in assay [14], greater than 100 µM; in [15], greater than 100 µM; in assay [16] it was greater than 100 µM; in assay [17], greater than 100 µM.

As to `Oc1[nH]c2ccccc2c1C1=Nc2ccccc2/C1=N\OCCOC1OCC(O)C(O)C1O` (stereo unspecified), the TGI in [1], in [2], in assay [3], in assay [4], in assay [5] and in [6] was greater than 100 µM each time. For the same compound, the TGI in assay [7], in assay [8], in assay [9], in assay [10], in assay [11] and in assay [12] was greater than 100 µM in each case. The TGI in assay [13], in [14], in [15], in [16] and in assay [17] was greater than 100 µM each time.
